Experimental data from US7232912B2, “Indazole compounds, pharmaceutical compositions, and methods for mediating or inhibiting cell proliferation” (Agouron Pharmaceuticals, Inc., priority 2000, dated 2007).

Tests used:
[1] = target: CDK4/cyclin D3 (Homo sapiens, UniProt P11802); assay: Inhibition of CDK4/Cyclin D Retinoblastoma Kinase Activity; type: biochemical; details: apparent Ki
In short: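 Human CDK4/cyclin D3 (full-length or cyclin D3 1–264), insect-cell expressed, at 5 or 50 nM with His-tagged Rb 386–928 substrate, 25 μM ATP plus [32P/33P]ATP, pH 7.4, 2% DMSO, 30 °C for 20 min; tight binders used 5 nM enzyme for 60 min. Filter-captured phospho-Rb quantified by phosphorimager. Apparent Ki from competitive or tight-binding inhibition fits.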

[2] = test system: FAK; assay: Coupled Spectrophotometric (FAK) Assay; type: biochemical
Method: Coupled Spectrophotometric (FAK) Assay
Tyrosine kinase assays were monitored using a Beckman DU 650 Spectrophotometer. Production of ADP was coupled to oxidation of NADH using phosphoenolpyruvate (PEP) through the actions of pyruvate kinase (PK) and lactic dehydrogenase (LDH). The oxidation of NADH was monitored by following the decrease in absorbance at 340 nm (ε340=6.22 cm^−1 mM^−1). Typical reaction solutions contained: 1 mM PEP, 250 μM NADH, 50 units of LDH/mL, 20 units of PK/mL, 5 mM DTT, in 200 mM Hepes, pH 7.5 and varying concentrations of poly(E4Y1), ATP and MgCl2. Assays were initiated with 40 nM of […].

[3] = target: T1, CDK2/cyclin A (Homo sapiens, UniProt P24941); assay: Inhibition of CDK2/Cyclin A Retinoblastoma Kinase Activity; type: biochemical; details: apparent Ki
T1 construct: made in house; host or cells: CDK2: insect cells (baculovirus); cyclin A: E. coli
In short: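 Baculovirus-expressed CDK2 complexed with proteolyzed cyclin A, at 150 nM or 5 nM, phosphorylating an Rb fragment with 25 µM [32/33P]ATP in HEPES pH 7.4, 2% DMSO. Reactions run 20 min at 30°C, EDTA-stopped, filter-captured; apparent Ki from competitive or tight-binding competitive fits.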

[4] = target: T2, human CHK1 (Homo sapiens, UniProt O14757); assay: CHK1 Assay (coupled spectrophotometric); type: biochemical
T2 construct: C-terminally His-tagged full-length human CHK1 (FL-CHK1) was expressed using the baculovirus/insect cell system; made in house; host or cells: baculovirus/insect cells
T2 sequence (O14757 1-476): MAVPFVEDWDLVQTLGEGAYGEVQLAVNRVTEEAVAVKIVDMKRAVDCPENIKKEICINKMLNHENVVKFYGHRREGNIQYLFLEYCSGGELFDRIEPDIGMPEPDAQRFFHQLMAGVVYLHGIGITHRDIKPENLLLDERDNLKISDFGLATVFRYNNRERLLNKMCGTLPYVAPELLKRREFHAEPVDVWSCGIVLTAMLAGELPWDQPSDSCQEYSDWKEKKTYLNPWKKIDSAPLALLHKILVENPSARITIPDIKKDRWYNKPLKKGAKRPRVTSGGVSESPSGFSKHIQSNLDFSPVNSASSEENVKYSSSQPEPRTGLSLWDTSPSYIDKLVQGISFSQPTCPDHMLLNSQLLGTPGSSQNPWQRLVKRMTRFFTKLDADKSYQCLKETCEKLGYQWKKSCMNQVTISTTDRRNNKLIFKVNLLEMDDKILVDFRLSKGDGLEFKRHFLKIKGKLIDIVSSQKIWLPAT
Text: C-terminally His-tagged full-length human CHK1 (FL-CHK1) was expressed using the baculovirus/insect cell system. It contains 6 histidine residues (6×His-tag) at the C-terminus of the 476 amino acid human CHK1. The protein was purified by conventional chromatographic techniques.
The production of ADP from ATP that accompanies phosphoryl transfer to the synthetic substrate peptide Syntide-2 ([…]) was coupled to oxidation of NADH using phosphoenolpyruvate (PEP) through the actions of pyruvate kinase (PK) and lactic dehydrogenase (LDH). The oxidation of NADH was monitored by following the decrease of absorbance at 340 nm (ε340=6.22 cm^−1 mM^−1) using a HP8452 spectrophotometer. Typical reaction solutions contained: […]; 0.15 mM NADH; 28 units of LDH/ml; 16 units of PK/ml; 3 mM DTT; 0.125 mM Syntide-2; 0.15 mM ATP; 25 mM MgCl2 in 50 mM TRIS, pH 7.5; and 400 mM NaCl. Assays were initiated with 10 nM of FL-CHK1. Ki values were determined by measuring initial enzyme activity in the presence of varying concentrations of test compounds. The data were analyzed using Enzyme Kinetic and Kaleidagraph software.

[5] = test system: HCT 116 cell line; assay: Inhibition of Cell Growth (MTT tetrazolium salt assay); type: cell-based; details: Homo sapiens, HCT 116, MTT; for IC50: 50% inhibition of growth, read-out: HCT 116 IC50; for IC90: read-out: HCT 116 IC90
In short: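 HCT 116 cells in McCoy's 5A were dosed 4 h after plating, in 0.5% (v/v) DMSO, then held 4–6 days at 37 °C, 5% CO2. MTT at 0.2 mg/mL final for 4 h; DMSO-solubilized formazan read at 540 nm. IC50 taken from the linear part of a semi-log plot versus DMSO-only controls.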

[6] = target: T3, FGFR1 tyrosine kinase (Homo sapiens, UniProt P11362, C488A/C584S/L457V); assay: Inhibition of phosphorylated FGF receptor tyrosine kinase activity; type: biochemical; details: read-out: FGF % Inhib. at 1 μM
T3 construct: the cytosolic domain of FGFR1 tyrosine kinase (amino acids 456–766); made in house; host or cells: Sf9 insect cells (baculovirus)
Method: (§1) Inhibition of Phosphorylated FGF Receptor and LCK Tyrosine Kinase Activity
(§2) Cloning, expression and purification of the cytosolic domain of FGFR1 tyrosine kinase (amino acids 456–766) containing three amino acid substitutions (L457V, C488A, and C584S) were conducted as previously described (Mohammadi, M., Schlessinger, J., & Hubbard, S. R. (1996) Cell 86, 577–587). This domain was expressed in Sf9 insect cells using a baculovirus expression vector, and protein was purified using conventional techniques. The LCK tyrosine kinase was expressed in insect cells as an N-terminal deletion starting from amino acid 223 to the end of the protein at amino acid 509. The N-terminus of the protein also had two amino acid substitutions, P223M and C 224D. Kinases were purified using conventional chromatographic methods.
(§3) Tyrosine kinase activity was measured using a coupled, continuous spectrophotometric assay, in which production of phosphorylated poly(Glu, Tyr; 4:1) substrate and ADP is coupled to the pyruvate kinase-catalyzed transfer of a phosphate from phosphoenolpyruvate to ADP, with generation of pyruvate and regeneration of ATP. Pyruvate production is in turn coupled to the lactate dehydrogenase-catalyzed reduction of pyruvate to form lactate, with concomitant conversion of NADH to NAD+. Loss of NADH is monitored by measuring absorbance at 340 nm (see e.g., Technikova-Dobrova et al., “Spectrophotometric determination of functional characteristics of protein kinases with coupled enzymatic assay,” FEBS Letters, vol. 292 (1991), pp. 69–72). Enzyme activity was measured in the presence of 200 mM HEPES (pH 7.5), 2 mM phosphoenolpyruvate, 0.3 mM NADH, 20 mM MgCl2, 100 μM ATP, 5 mM DTT, 5.1 or 25 mM poly (Glu,Tyr) 4:1 for P-FGF or P-LCK assays, respectively, and 15 units/mL each of pyruvate kinase and lactate dehydrogenase. Phosphorylated FGF receptor kinase was present at 100 nM and phosphorylated LCK kinase was present at 50 nM. Assays were performed under initial rate conditions at 37° C., and rates were corrected for any background rate measured in the absence of enzyme. Percent inhibition was calculated relative to control enzyme assayed in the presence of 2% (v/v) DMSO.

[7] = target: T4, LCK tyrosine kinase (Homo sapiens, UniProt P06239, C224D/P223M); assay: Inhibition of phosphorylated LCK tyrosine kinase activity; type: biochemical; details: read-out: LCK % Inhib. at 1 μM
T4 construct: starting from amino acid 223 to the end of the protein at amino acid 509; made in house; host or cells: insect cells
Method: as §1, §2, §3

T3 sequence (P11362 456-766 L457V/C488A/C584S): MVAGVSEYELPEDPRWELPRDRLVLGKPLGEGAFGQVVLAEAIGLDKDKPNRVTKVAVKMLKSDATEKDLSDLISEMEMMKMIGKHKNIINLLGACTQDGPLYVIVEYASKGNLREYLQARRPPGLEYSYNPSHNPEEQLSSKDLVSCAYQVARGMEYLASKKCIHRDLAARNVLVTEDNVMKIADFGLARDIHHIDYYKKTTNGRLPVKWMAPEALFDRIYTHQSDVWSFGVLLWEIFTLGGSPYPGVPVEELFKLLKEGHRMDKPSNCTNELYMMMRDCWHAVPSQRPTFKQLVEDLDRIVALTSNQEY
CDK4/cyclin D3, sequence (P11802 2-303 limits assumed): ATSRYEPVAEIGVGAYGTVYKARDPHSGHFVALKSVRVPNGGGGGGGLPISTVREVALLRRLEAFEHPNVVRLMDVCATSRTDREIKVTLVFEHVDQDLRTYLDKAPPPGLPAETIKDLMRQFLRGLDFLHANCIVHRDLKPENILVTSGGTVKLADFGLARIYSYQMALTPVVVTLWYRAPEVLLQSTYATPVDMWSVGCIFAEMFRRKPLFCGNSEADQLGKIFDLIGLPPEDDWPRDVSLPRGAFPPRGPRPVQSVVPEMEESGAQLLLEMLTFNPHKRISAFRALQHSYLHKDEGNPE
CDK4/cyclin D3, sequence (P30281 1-264 limits assumed, further chain): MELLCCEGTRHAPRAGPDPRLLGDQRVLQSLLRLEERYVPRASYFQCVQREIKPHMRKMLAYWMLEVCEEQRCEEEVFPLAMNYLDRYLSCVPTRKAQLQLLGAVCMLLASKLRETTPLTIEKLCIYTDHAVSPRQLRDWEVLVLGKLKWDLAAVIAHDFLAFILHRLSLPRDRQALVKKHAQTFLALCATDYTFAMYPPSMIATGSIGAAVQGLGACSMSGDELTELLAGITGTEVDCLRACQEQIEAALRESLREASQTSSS
T4 sequence (P06239 223-509 P223M/C224D): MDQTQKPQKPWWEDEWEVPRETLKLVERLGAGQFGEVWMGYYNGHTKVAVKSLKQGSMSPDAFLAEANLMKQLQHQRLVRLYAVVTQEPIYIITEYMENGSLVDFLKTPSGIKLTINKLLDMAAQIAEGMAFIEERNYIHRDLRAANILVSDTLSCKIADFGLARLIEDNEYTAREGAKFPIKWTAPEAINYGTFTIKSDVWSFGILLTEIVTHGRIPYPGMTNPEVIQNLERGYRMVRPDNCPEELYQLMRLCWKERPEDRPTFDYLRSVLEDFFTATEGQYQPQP

**Q.** Which Ki [1] does the source give for `OC1CCN(c2ccc3[nH]nc(/C=C/c4ccccc4)c3c2)CC1` [Example 27, 1-[3-((E)Styryl)-1H-indazol-5-yl]-piperidin-4-ol] here?
**A.** 1500 nM

**Q.** What about the “FAK % Inhibition at 1 μM” value [2] of the same molecule?
**A.** 44%

**Q.** What about the Ki [3] of the same molecule?
**A.** 1600 nM

**Q.** For `Nc1ccc2[nH]nc(-c3ccc[nH]3)c2c1` [Example 84, 5-Amino-3-(2-Pyrrolyl)-1H-indazole], which Ki [4] is on record?
**A.** 22500 nM

**Q.** And the Ki [1]?
**A.** 34000 nM

**Q.** What about the Ki [3] of the same molecule?
**A.** 28000 nM

**Q.** Which results are given for `C(=C\c1n[nH]c2ccc(-c3ccccc3)cc12)/c1ccccc1` [Example 1, 5-Phenyl-3-Styryl-1H-Indazole]?
**A.** Ki [4]: 6700 nM; Ki [1]: 1700 nM; FAK % Inhibition at 1 μM [2]: 32%; Ki [3]: 11000 nM

**Q.** With `COc1cccc(-c2ccc3[nH]nc(-c4nc5ccccc5[nH]4)c3c2)c1` [Example 5, 3-(1H-Benzoimidazol-2-yl)-5-(3-methoxyphenyl)-1H-indazole] as the molecule, how does the inhibition at 20 µM [4] read?
**A.** 56%

**Q.** And the Ki [1]?
**A.** 480 nM

**Q.** What about the Ki [3] of the same molecule?
**A.** 690 nM

**Q.** With `c1ccc(-c2ccc3[nH]nc(-c4nc5ccccc5[nH]4)c3c2)cc1` [Example 3, 3-(1H-Benzoimidazol-2-yl)-5-Phenyl-1H-indazole] as the molecule, how does the inhibition at 20 µM [4] read?
**A.** 75%

**Q.** What about the Ki [1] of the same molecule?
**A.** 370 nM

**Q.** What about the melting point of the same molecule?
**A.** 80 to 82 °C

**Q.** What about the Ki [3] of the same molecule?
**A.** 240 nM

**Q.** With `Nc1cccc2c(-c3ccc4[nH]nc(/C=C/c5ccccc5)c4c3)cncc12` [Example 45] as the molecule, how does the IC50 [5] read?
**A.** 2100 nM

**Q.** What about the IC90 [5] of the same molecule?
**A.** 5000 nM

**Q.** What about the Ki [1] of the same molecule?
**A.** 12 nM

**Q.** And the “FAK % Inhibition at 1 μM” value [2]?
**A.** 63%

**Q.** What about the Ki [3] of the same molecule?
**A.** 17 nM

**Q.** And the inhibition at 1 µM [6]?
**A.** 58.7%

**Q.** With `Cc1c(O)cccc1-c1ccc2[nH]nc(-c3nc4c(O)cccc4[nH]3)c2c1` [Example 21, 2-[5-(3-Hydroxy-2-methyl-phenyl)-1H-indazol-3-yl]-1H-benzoimidazol-4-ol] as the molecule, how does the Ki [4] read?
**A.** 8550 nM

**Q.** And the Ki [1]?
**A.** 237 nM

**Q.** And the inhibition at 1 µM [7]?
**A.** 23%

**Q.** What about the Ki [3] of the same molecule?
**A.** 49 nM

**Q.** And the inhibition at 1 µM [6]?
**A.** 54%

**Q.** With `Clc1ccncc1-c1ccc2[nH]nc(/C=C/c3ccccc3)c2c1` [Example 42, 5-(4-Chloro-pyridin-3-yl)-3-(E)-styryl-1H-indazole] as the molecule, how does the IC50 [5] read?
**A.** 3000 nM

**Q.** What about the IC90 [5] of the same molecule?
**A.** 5000 nM

**Q.** What about the Ki [1] of the same molecule?
**A.** 8.2 nM

**Q.** And the “FAK % Inhibition at 1 μM” value [2]?
**A.** 78%

**Q.** What about the Ki [3] of the same molecule?
**A.** 17.2 nM

**Q.** And the inhibition at 1 µM [6]?
**A.** 70.3%

**Q.** Which Ki [1] does the source give for `OC1CCCN(c2ccc3[nH]nc(/C=C/c4ccccc4)c3c2)C1` (stereo not shown) [Example 28, 1-[3-((E)Styryl)-1H-indazol-5-yl]-piperidin-3-ol] here?
**A.** 680 nM

**Q.** And the “FAK % Inhibition at 1 μM” value [2]?
**A.** 61%

**Q.** And the Ki [3]?
**A.** 720 nM

**Q.** For `Oc1cc(F)c(-c2ccc3[nH]nc(-c4nc5ccccc5[nH]4)c3c2)c(F)c1` [Example 50, 4-[-3-(1H-Benzoimidazol-2-yl)-1H-indazol-5-yl]-3,5-difluoro-phenol], which IC50 [5] is on record?
**A.** 1800 nM

**Q.** And the IC90 [5]?
**A.** 5000 nM

**Q.** And the Ki [1]?
**A.** 253 nM

**Q.** And the Ki [3]?
**A.** 73 nM

**Q.** And the inhibition at 1 µM [6]?
**A.** 89.6%

**Q.** Which IC50 [5] does the source give for `Cc1c(-c2ccncc2)cncc1-c1ccc2[nH]nc(-c3nc4c(CN(C)C)cccc4[nH]3)c2c1` [Example 68, Dimethyl-{2-[5-(4-methyl-[3,4′]bipyridinyl-5-yl)-1H-indazol-3-yl]-1H-benzoimidazol-4-ylmethyl}-amine] here?
**A.** 160 nM

**Q.** And the IC90 [5]?
**A.** 600 nM

**Q.** And the Ki [1]?
**A.** 4.7 nM

**Q.** What about the Ki [3] of the same molecule?
**A.** 1.1 nM

**Q.** What about the inhibition at 1 µM [6] of the same molecule?
**A.** 12.6%

**Q.** For `Cc1ccncc1-c1ccc2[nH]nc(/C=C/c3ccccc3)c2c1` [Example 43, 5-(4Methyl-pyridin-3-yl)-3-(E)styryl-1H-indazole], which IC50 [5] is on record?
**A.** 1900 nM

**Q.** And the IC90 [5]?
**A.** 5000 nM

**Q.** What about the Ki [1] of the same molecule?
**A.** 15 nM

**Q.** What about the Ki [3] of the same molecule?
**A.** 29 nM

**Q.** What about the inhibition at 1 µM [6] of the same molecule?
**A.** 59.6%
